Assay results taken from patent publication US20110046056A1, “APOA-1 PEPTIDE MIMETICS” (priority 2007, published 2011).
*1 amine or outer side, *2 acyl side, *3 side chain or, on linkers, in order; H or OH if unused. Where a SMILES comes first, the peptide text is derived from it. [ ]: non-standard residue; d: D form. Leu(5,5,5,5',5',5'-F6) = N[C@@H](CC(C(F)(F)F)C(F)(F)F)C(=O)O; Gly(oct-7-en-1-yl) = C=CCCCCCC[C@H](N)C(=O)O; dGly(6-heptenyl) = C=CCCCCC[C@@H](N)C(=O)O; Ala(5-hexenyl) = C=CCCCCC[C@H](N)C(=O)O; dNle(6-vinyl) = C=CCCCC[C@@H](N)C(=O)O; Gla = N[C@@H](CC(C(=O)O)C(=O)O)C(=O)O; Gly(octyl) = CCCCCCCC[C@H](N)C(=O)O; X6 = CCCCCCC[C@H](N[*:1])C(=O)[*:2]

molecular target: T1, ABCA1 cholesterol transporter protein (Mus musculus, UniProt P41233); test: ABCA1-dependent cholesterol efflux from RAW mouse macrophage cells (in vitro RCT assay); assay type: cell-based; conditions: read-out: EC50 in the cholesterol efflux assay (RCT in vitro assay)
T1 construct: endogenous in cells
Description: Peptides of the present invention were designed based on amphipathic properties and their abilities to solubilize phospholipids and promote cholesterol efflux. The most direct functional measurement of efficacy for the ApoA-1 peptide mimetic is its capacity to improve the efflux of cholesterol from the cell. The RAW and J774 cell lines are reliable mouse macrophage cell lines frequently used in the art for this purpose. […] The RAW cell line is preferred and recited in the description below.
In the present assay, the RAW cells are plated at 1.5×10^5 cells/200 μl/well/48-well plate in DMEM complete medium (with 10% FBS from INVITROGEN and 1% penicillin-streptomycin-glutamine from GIBCO) and ^3H-cholesterol at 5 μCi/ml. After 24 hours incubation in a moist 37° C. atmosphere with 5% CO2, the spent medium is removed, the cells are washed once with serum-free DMEM (0.1% fatty acid free bovine serum albumin replaces the FBS), and fresh serum-free medium (200 μl) is added to each well. After overnight incubation in the serum-free medium to allow the cellular cholesterol pools to equilibrate, the spent medium is removed, and fresh serum-free medium is added with/without CPT-cAMP (150 μM final). Eight-point serial titrations of the peptide/s being tested are added at this time (duplicate titrations in plain medium without cAMP and duplicate titrations in medium containing cAMP).
After 24 hours incubation in the various conditions, the medium is harvested from each well and 50 μl aliquots are counted. The cells are then lysed by adding 500 μl of HEPES/Triton lysis buffer to each well. The lysis is facilitated by freezing and thawing once. After thawing, the lysates are mixed well and 50 μl aliquots are counted.
The percent efflux of each peptide in each medium condition (±cAMP) is calculated by dividing the total counts in the medium by the sum of the total counts in the medium and lysate. The percent efflux seen with plain medium is subtracted from the percent efflux seen with the cAMP-stimulated efflux to yield the reported ABCA1-stimulated values. EC50 values are determined using PRISM software (Table 2).

T1 sequence (P41233 whole entry): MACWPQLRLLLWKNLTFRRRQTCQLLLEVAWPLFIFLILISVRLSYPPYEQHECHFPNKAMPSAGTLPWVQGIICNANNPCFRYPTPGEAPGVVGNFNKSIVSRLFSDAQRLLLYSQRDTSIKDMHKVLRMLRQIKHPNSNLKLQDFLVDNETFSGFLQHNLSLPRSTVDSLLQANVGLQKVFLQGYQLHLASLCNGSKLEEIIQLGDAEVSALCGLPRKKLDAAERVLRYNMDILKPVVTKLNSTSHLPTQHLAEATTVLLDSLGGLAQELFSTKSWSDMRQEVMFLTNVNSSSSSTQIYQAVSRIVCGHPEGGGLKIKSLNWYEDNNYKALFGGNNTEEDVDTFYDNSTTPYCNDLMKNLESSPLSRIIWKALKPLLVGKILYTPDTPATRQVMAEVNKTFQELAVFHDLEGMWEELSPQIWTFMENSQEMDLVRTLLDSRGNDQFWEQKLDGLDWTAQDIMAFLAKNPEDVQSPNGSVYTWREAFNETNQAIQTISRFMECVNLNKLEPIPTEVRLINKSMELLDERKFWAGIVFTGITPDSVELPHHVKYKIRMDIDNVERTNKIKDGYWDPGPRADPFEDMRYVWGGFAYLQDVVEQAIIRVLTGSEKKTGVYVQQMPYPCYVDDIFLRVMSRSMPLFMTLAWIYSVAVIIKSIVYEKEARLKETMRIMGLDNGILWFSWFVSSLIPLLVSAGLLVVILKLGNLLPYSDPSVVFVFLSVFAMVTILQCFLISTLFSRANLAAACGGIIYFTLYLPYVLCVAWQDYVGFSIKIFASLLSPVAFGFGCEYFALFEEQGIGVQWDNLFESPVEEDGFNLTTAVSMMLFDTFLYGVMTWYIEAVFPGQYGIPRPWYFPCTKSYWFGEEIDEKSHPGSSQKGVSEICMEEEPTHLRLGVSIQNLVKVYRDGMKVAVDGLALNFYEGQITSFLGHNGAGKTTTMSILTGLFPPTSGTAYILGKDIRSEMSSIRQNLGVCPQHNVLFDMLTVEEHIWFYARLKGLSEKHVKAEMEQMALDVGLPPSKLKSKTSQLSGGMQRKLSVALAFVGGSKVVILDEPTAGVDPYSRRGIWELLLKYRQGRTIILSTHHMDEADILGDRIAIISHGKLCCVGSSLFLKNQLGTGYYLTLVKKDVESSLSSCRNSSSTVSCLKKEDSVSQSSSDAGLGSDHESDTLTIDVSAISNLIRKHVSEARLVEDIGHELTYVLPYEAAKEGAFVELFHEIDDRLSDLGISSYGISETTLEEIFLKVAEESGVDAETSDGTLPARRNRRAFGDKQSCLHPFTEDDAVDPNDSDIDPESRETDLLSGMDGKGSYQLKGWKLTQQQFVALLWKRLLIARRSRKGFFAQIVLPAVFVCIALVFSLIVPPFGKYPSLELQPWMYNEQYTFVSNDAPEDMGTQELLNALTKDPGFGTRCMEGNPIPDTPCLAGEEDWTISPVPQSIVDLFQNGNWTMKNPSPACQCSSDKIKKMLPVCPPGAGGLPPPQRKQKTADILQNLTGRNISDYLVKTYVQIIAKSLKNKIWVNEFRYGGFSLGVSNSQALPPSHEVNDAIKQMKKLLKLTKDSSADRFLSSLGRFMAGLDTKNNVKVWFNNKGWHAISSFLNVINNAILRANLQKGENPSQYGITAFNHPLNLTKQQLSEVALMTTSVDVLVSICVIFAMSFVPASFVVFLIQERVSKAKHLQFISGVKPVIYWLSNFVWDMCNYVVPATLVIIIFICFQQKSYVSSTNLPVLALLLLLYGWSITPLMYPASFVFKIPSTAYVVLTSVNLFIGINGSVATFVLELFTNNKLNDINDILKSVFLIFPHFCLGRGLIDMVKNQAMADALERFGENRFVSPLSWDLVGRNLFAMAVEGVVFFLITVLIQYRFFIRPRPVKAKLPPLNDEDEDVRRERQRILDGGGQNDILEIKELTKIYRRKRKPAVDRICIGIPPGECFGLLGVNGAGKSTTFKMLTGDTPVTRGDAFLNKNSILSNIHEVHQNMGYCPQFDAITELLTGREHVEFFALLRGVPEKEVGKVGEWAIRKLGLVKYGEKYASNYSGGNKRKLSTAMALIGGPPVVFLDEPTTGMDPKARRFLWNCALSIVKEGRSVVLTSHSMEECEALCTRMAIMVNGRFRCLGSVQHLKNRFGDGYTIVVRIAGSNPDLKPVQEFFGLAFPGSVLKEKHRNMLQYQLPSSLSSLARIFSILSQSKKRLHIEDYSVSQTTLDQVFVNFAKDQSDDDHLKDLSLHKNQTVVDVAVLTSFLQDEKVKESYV

Structure (SMILES)	EC50 [nM]
C=CCCCC[C@@H](NC(=O)[C@H](CCC(=O)O)NC(=O)[C@H](CC(N)=O)NC(=O)[C@H](CC(C)C)NC(=O)[C@H](CCCCN)NC(=O)[C@H](CCC(=O)O)NC(=O)[C@H](CCCN=C(N)N)NC(=O)[C@H](Cc1ccccc1)NC(=O)[C@H](CCC(=O)O)NC(=O)[C@H](CC(=O)O)NC(=O)[C@H](CC(C)C)NC(=O)[C@@H](NC(=O)[C@@H]1CCCN1C(C)=O)C(C)C)C(=O)N[C@@H](CC(C)C)C(=O)N[C@@H](CCC(=O)O)C(=O)N[C@@H](C)C(=O)N[C@@H](CC(C)C)C(=O)N[C@@H](CCCCN)C(=O)N[C@@H](CCC(N)=O)C(=O)N[C@@H](CCCCN)C(=O)N[C@@H](CC(C)C)C(=O)N[C@@H](CCCCN)C(N)=O [SEQ ID NO 18, PVLDEFREKLNER6HLEALKQKLK] (Ac-PVLDEFREKLNE[dNle(6-vinyl)]LEALKQKLK-NH2)	18000
C=CCCCCC[C@@H](NC(=O)[C@H](CCC(=O)O)NC(=O)[C@H](CC(N)=O)NC(=O)[C@H](CC(C)C)NC(=O)[C@H](CCCCN)NC(=O)[C@H](CCC(=O)O)NC(=O)[C@H](CCCN=C(N)N)NC(=O)[C@H](Cc1ccccc1)NC(=O)[C@H](CCC(=O)O)NC(=O)[C@H](CC(=O)O)NC(=O)[C@H](CC(C)C)NC(=O)[C@@H](NC(=O)[C@@H]1CCCN1C(C)=O)C(C)C)C(=O)N[C@@H](CC(C)C)C(=O)N[C@@H](CCC(=O)O)C(=O)N[C@@H](C)C(=O)N[C@@H](CC(C)C)C(=O)N[C@@H](CCCCN)C(=O)N[C@@H](CCC(N)=O)C(=O)N[C@@H](CCCCN)C(=O)N[C@@H](CC(C)C)C(=O)N[C@@H](CCCCN)C(N)=O [SEQ ID NO 21, PVLDEFREKLNER7HLEALKQKLK] (Ac-PVLDEFREKLNE[dGly(6-heptenyl)]LEALKQKLK-NH2)	7200
C=CCCCCC[C@H](NC(=O)[C@H](CCC(=O)O)NC(=O)[C@H](CC(N)=O)NC(=O)[C@H](CC(C)C)NC(=O)[C@H](CCCCN)NC(=O)[C@H](CCC(=O)O)NC(=O)[C@H](CCCNC(=N)N)NC(=O)[C@H](Cc1ccccc1)NC(=O)[C@H](CCC(=O)O)NC(=O)[C@H](CC(=O)O)NC(=O)[C@H](CC(C)C)NC(=O)[C@@H](NC(=O)[C@@H]1CCCN1C(C)=O)C(C)C)C(=O)N[C@@H](CC(C)C)C(=O)N[C@@H](CCC(=O)O)C(=O)N[C@@H](C)C(=O)N[C@@H](CC(C)C)C(=O)N[C@@H](CCCCN)C(=O)N[C@@H](CCC(N)=O)C(=O)N[C@@H](CCCCN)C(=O)N[C@@H](CC(C)C)C(=O)N[C@@H](CCCCN)C(N)=O [SEQ ID NO 29, PVLDEFREKLNES7HLEALKQKLK] (Ac-PVLDEFREKLNE[Ala(5-hexenyl)]LEALKQKLK-NH2)	2000
C=CCCCCCC[C@H](NC(=O)[C@H](CCC(=O)O)NC(=O)[C@H](CC(N)=O)NC(=O)[C@H](CC(C)C)NC(=O)[C@H](CCCCN)NC(=O)[C@H](CCC(=O)O)NC(=O)[C@H](CCCN=C(N)N)NC(=O)[C@H](Cc1ccccc1)NC(=O)[C@H](CCC(=O)O)NC(=O)[C@H](CC(=O)O)NC(=O)[C@H](CC(C)C)NC(=O)[C@@H](NC(=O)[C@@H]1CCCN1C(C)=O)C(C)C)C(=O)N[C@@H](CC(C)C)C(=O)N[C@@H](CCC(=O)O)C(=O)N[C@@H](C)C(=O)N[C@@H](CC(C)C)C(=O)N[C@@H](CCCCN)C(=O)N[C@@H](CCC(N)=O)C(=O)N[C@@H](CCCCN)C(=O)N[C@@H](CC(C)C)C(=O)N[C@@H](CCCCN)C(N)=O [SEQ ID NO 32, PVLDEFREKLNES8HLEALKQKLK] (Ac-PVLDEFREKLNE[Gly(oct-7-en-1-yl)]LEALKQKLK-NH2)	600
CCCCCCC[C@H](NC(=O)[C@H](CCC(=O)O)NC(=O)[C@H](CC(N)=O)NC(=O)[C@H](CC(C)C)NC(=O)[C@H](CCCCN)NC(=O)[C@H](CCC(=O)O)NC(=O)[C@H](CCCN=C(N)N)NC(=O)[C@H](Cc1ccccc1)NC(=O)[C@H](CCC(=O)O)NC(=O)[C@H](CC(=O)O)NC(=O)[C@H](CC(C)C)NC(=O)[C@@H](NC(=O)[C@@H]1CCCN1C(C)=O)C(C)C)C(=O)N[C@@H](CC(C)C)C(=O)N[C@@H](CCC(=O)O)C(=O)N[C@@H](C)C(=O)N[C@@H](CC(C)C)C(=O)N[C@@H](CCCCN)C(=O)N[C@@H](CCC(N)=O)C(=O)N[C@@H](CCCCN)C(=O)N[C@@H](CC(C)C)C(=O)N[C@@H](CCCCN)C(N)=O [SEQ ID NO 34, PVLDEFREKLNES7H3LEALKQKLK] (Ac-PVLDEFREKLNE[X6]LEALKQKLK-NH2)	600
CCCCCCCC[C@H](NC(=O)[C@H](CCC(=O)O)NC(=O)[C@H](CC(N)=O)NC(=O)[C@H](CC(C)C)NC(=O)[C@H](CCCCN)NC(=O)[C@H](CCC(=O)O)NC(=O)[C@H](CCCN=C(N)N)NC(=O)[C@H](Cc1ccccc1)NC(=O)[C@H](CCC(=O)O)NC(=O)[C@H](CC(=O)O)NC(=O)[C@H](CC(C)C)NC(=O)[C@@H](NC(=O)[C@@H]1CCCN1C(C)=O)C(C)C)C(=O)N[C@@H](CC(C)C)C(=O)N[C@@H](CCC(=O)O)C(=O)N[C@@H](C)C(=O)N[C@@H](CC(C)C)C(=O)N[C@@H](CCCCN)C(=O)N[C@@H](CCC(N)=O)C(=O)N[C@@H](CCCCN)C(=O)N[C@@H](CC(C)C)C(=O)N[C@@H](CCCCN)C(N)=O [SEQ ID NO 35, PVLDEFREKLNES8H3LEALKQKLK] (Ac-PVLDEFREKLNE[Gly(octyl)]LEALKQKLK-NH2)	300
CC(=O)N1CCC[C@H]1C(=O)N[C@H](C(=O)N[C@@H](CC(C)C)C(=O)N[C@@H](CC(=O)O)C(=O)N[C@@H](CCC(=O)O)C(=O)N[C@@H](Cc1ccccc1)C(=O)N[C@@H](CCCNC(=N)N)C(=O)N[C@@H](CCC(=O)O)C(=O)N[C@@H](CCCCN)C(=O)N[C@@H](CC(C)C)C(=O)N[C@@H](CC(N)=O)C(=O)N[C@@H](CCC(=O)O)C(=O)N[C@@H](CC(C(F)(F)F)C(F)(F)F)C(=O)N[C@@H](CC(C)C)C(=O)N[C@@H](CCC(=O)O)C(=O)N[C@@H](C)C(=O)N[C@@H](CC(C)C)C(=O)N[C@@H](CCCCN)C(=O)N[C@@H](CCC(N)=O)C(=O)N[C@@H](CCCCN)C(=O)N[C@@H](CC(C)C)C(=O)N[C@@H](CCCCN)C(N)=O)C(C)C [SEQ ID NO 41, PVLDEFREKLNE-HFLEU-LEALKQKLK] (Ac-PVLDEFREKLNE[Leu(5,5,5,5',5',5'-F6)]LEALKQKLK-NH2; C-terminus assumed)	1100
C=CCCCCC[C@H](NC(=O)[C@H](CCC(=O)O)NC(=O)[C@H](CC(N)=O)NC(=O)[C@H](CC(C)C)NC(=O)[C@H](CCCCN)NC(=O)[C@H](CCC(=O)O)NC(=O)[C@H](CCCN=C(N)N)NC(=O)[C@H](Cc1ccccc1)NC(=O)[C@H](CCC(=O)O)NC(=O)[C@H](CC(=O)O)NC(=O)[C@H](CC(C)C)NC(=O)[C@H](CCCCCC=C)NC(=O)[C@@H]1CCCN1C(C)=O)C(=O)N[C@@H](CC(C)C)C(=O)N[C@@H](CCC(=O)O)C(=O)N[C@@H](C)C(=O)N[C@@H](CC(C)C)C(=O)N[C@@H](CCCCN)C(=O)N[C@@H](CCC(N)=O)C(=O)N[C@@H](CCCCN)C(=O)N[C@@H](CC(C)C)C(=O)N[C@@H](CCCCN)C(N)=O [SEQ ID NO 42, PS7HLDEFREKLNES7HLEALKQKLK] (Ac-P[Ala(5-hexenyl)]LDEFREKLNE[Ala(5-hexenyl)]LEALKQKLK-NH2)	300
C=CCCCCC[C@H](NC(=O)[C@H](CCC(N)=O)NC(=O)[C@H](CCCCN)NC(=O)[C@H](CC(C)C)NC(=O)[C@H](C)NC(=O)[C@H](CCC(=O)O)NC(=O)[C@H](CC(C)C)NC(=O)[C@H](CCCCCC=C)NC(=O)[C@H](CCC(=O)O)NC(=O)[C@H](CC(N)=O)NC(=O)[C@H](CC(C)C)NC(=O)[C@H](CCCCN)NC(=O)[C@H](CCC(=O)O)NC(=O)[C@H](CCCN=C(N)N)NC(=O)[C@H](Cc1ccccc1)NC(=O)[C@H](CCC(=O)O)NC(=O)[C@H](CC(=O)O)NC(=O)[C@H](CC(C)C)NC(=O)[C@@H](NC(=O)[C@@H]1CCCN1C(C)=O)C(C)C)C(=O)N[C@@H](CC(C)C)C(=O)N[C@@H](CCCCN)C(N)=O [SEQ ID NO 44, PVLDEFREKLNES7HLEALKQS7HLK] (Ac-PVLDEFREKLNE[Ala(5-hexenyl)]LEALKQ[Ala(5-hexenyl)]LK-NH2)	600
C=CCCCCC[C@H](NC(=O)[C@H](CCC(=O)O)NC(=O)[C@H](CC(N)=O)NC(=O)[C@H](CC(C)C)NC(=O)[C@H](CCCCN)NC(=O)[C@H](CCC(=O)O)NC(=O)[C@H](CCCNC(=N)N)NC(=O)[C@H](Cc1ccccc1)NC(=O)[C@H](CCC(=O)O)NC(=O)[C@H](CC(=O)O)NC(=O)[C@H](CC(C)C)NC(=O)[C@@H](NC(=O)[C@@H]1CCCN1C(C)=O)C(C)C)C(=O)N[C@@H](CC(C)C)C(=O)N[C@@H](CC(C(=O)O)C(=O)O)C(=O)N[C@@H](C)C(=O)N[C@@H](CC(C)C)C(=O)N[C@@H](CCCCN)C(=O)N[C@@H](CCC(N)=O)C(=O)N[C@@H](CCCCN)C(=O)N[C@@H](CC(C)C)C(=O)N[C@@H](CCCCN)C(N)=O [SEQ ID NO 47, PVLDEFREKLNES7HL-GLA-ALKQKLK] (Ac-PVLDEFREKLNE[Ala(5-hexenyl)]L[Gla]ALKQKLK-NH2; C-terminus assumed)	700
